According to patent US8466132B2, “Substituted tetracycline compounds” (Paratek Pharmaceuticals, Inc., priority 2004, dated 2013):

Columns and labels:
Type in all cases: cell-based
Design in all cases: key: Compounds which showed superior inhibition of S. aureus, S. pseumoniae and E. coli are indicated by “***,”; compounds which showed very good or good inhibition of S. aureus, S. pseumoniae and E. coli are indicated by “**” or “*” respectively; compounds which showed very good or good inhibition of S. aureus, S. pseumoniae and E. coli are indicated by “**” or “*” respectively
Conditions in all cases: broth microdilution in CAMHB, 35° C., approximately 18 hour
E. coli MG 1655 = experiment: In vitro minimum inhibitory concentration (MIC) assay, E. coli
Method: (§1) The following assay is used to determine the efficacy of the tetracycline compounds against common bacteria. 2 mg of each compound is dissolved in 100 μl of DMSO. The solution is then added to cation-adjusted Mueller Hinton broth (CAMHB), which results in a final compound concentration of 200 μg per ml. The tetracycline compound solutions are diluted to 50 μL volumes, with a test compound concentration of 0.098 μg/ml. Optical density (OD) determinations are made from fresh log-phase broth cultures of the test strains. Dilutions are made to achieve a final cell density of 1×10^6 CFU/ml. At OD=1, cell densities for different genera should be approximately:
(§2) 50 μl of the cell suspensions are added to each well of microtiter plates. The final cell density should be approximately 5×10^5 CFU/ml. These plates are incubated at 35° C. in an ambient air incubator for approximately 18 hour. The plates are read with a microplate reader and are visually inspected when necessary. The MIC is defined as the lowest concentration of the tetracycline compound that inhibits growth.
(§3) Table 3 gives the MIC (μg/mL) of selected substituted tetracycline compounds against S. aureus, S. pseuimoniae, and E. coli.

S. pneumoniae 157E = experiment: In vitro minimum inhibitory concentration (MIC) assay, S. pneumoniae
Method: as §1, §2, §3

S. aureus RN450 = experiment: In vitro minimum inhibitory concentration (MIC) assay, S. aureus
Method: as §1, §2, §3

Row | Structure (SMILES) | Median MIC for E. coli MG 1655 (E. coli MG 1655) | Median MIC for S. pneumoniae 157E (S. pneumoniae 157E) | Median MIC for S. aureus RN450 (S. aureus RN450)
1 | CN(C)c1cc(C#CC(=O)O)c(O)c2c1C[C@H]1C[C@H]3[C@@H](N(C)C)C(O)=C(C(N)=O)C(=O)[C@@]3(O)C(O)=C1C2=O | * | * | *
2 | COC(=O)C#Cc1cc(N(C)C)c2c(c1O)C(=O)C1=C(O)[C@]3(O)C(=O)C(C(N)=O)=C(O)[C@H](N(C)C)[C@@H]3C[C@@H]1C2 | * | *** | ***
3 | CN(C)c1cc(C(=O)N2CCCCC2)c(O)c2c1C[C@H]1C[C@H]3[C@H](N(C)C)C(O)=C(C(N)=O)C(=O)[C@@]3(O)C(O)=C1C2=O | * | * | *
4 | COCC#Cc1cc(N(C)C)c2c(c1O)C(=O)C1=C(O)[C@]3(O)C(=O)C(C(N)=O)=C(O)[C@@H](N(C)C)[C@@H]3C[C@@H]1C2 | * | *** | ***
5 | CNC(=O)c1cc(N(C)C)c2c(c1O)C(=O)C1=C(O)[C@]3(O)C(=O)C(C(N)=O)=C(O)[C@@H](N(C)C)[C@@H]3C[C@@H]1C2 | * | * | *
6 | CN(C)c1cc(C#N)c(O)c2c1C[C@H]1C[C@H]3[C@H](N(C)C)C(O)=C(C(N)=O)C(=O)[C@@]3(O)C(O)=C1C2=O | ** | *** | ***
7 | CN(C)c1cc(-c2cncnc2)c(O)c2c1C[C@H]1C[C@H]3[C@H](N(C)C)C(O)=C(C(N)=O)C(=O)[C@@]3(O)C(O)=C1C2=O | * | *** | ***
8 | CN(C)c1cccc(-c2cc(N(C)C)c3c(c2O)C(=O)C2=C(O)[C@]4(O)C(=O)C(C(N)=O)=C(O)[C@H](N(C)C)[C@@H]4C[C@@H]2C3)c1 | * | *** | ***
9 | CN(C)c1cc(C#N)c(O)c2c1C[C@H]1C[C@H]3[C@@H](N(C)C)C(O)=C(C(N)=O)C(=O)C3(O)C(O)=C1C2=O (stereo partly drawn) | * | *** | ***
10 | CN(C)c1cc(C(N)=O)c(O)c2c1C[C@H]1C[C@H]3[C@H](N(C)C)C(O)=C(C(N)=O)C(=O)[C@@]3(O)C(O)=C1C2=O | * | * | *
11 | CN(C)c1cc(-c2ccc(C#N)nc2)c(O)c2c1C[C@H]1C[C@H]3[C@H](N(C)C)C(O)=C(C(N)=O)C(=O)[C@@]3(O)C(O)=C1C2=O | * | *** | ***
12 | CC(=O)c1cc(N(C)C)c2c(c1O)C(=O)C1=C(O)[C@]3(O)C(=O)C(C(N)=O)=C(O)[C@H](N(C)C)[C@@H]3C[C@@H]1C2 | * | * | *
13 | CC(=O)Nc1ccc(-c2cc(N(C)C)c3c(c2O)C(=O)C2=C(O)[C@]4(O)C(=O)C(C(N)=O)=C(O)[C@@H](N(C)C)[C@@H]4C[C@@H]2C3)cn1 | * | *** | ***
14 | CN(C)c1cc(C(=O)NCC(C)(C)C)c(O)c2c1C[C@H]1C[C@H]3[C@H](N(C)C)C(O)=C(C(N)=O)C(=O)[C@@]3(O)C(O)=C1C2=O | * | ** | ***
15 | CN(C)c1cc(-c2cccc(C(N)=O)c2)c(O)c2c1C[C@H]1C[C@H]3[C@H](N(C)C)C(O)=C(C(N)=O)C(=O)[C@@]3(O)C(O)=C1C2=O | * | ** | ***
16 | CN(C)c1cc(-c2cccc(C(=O)O)c2)c(O)c2c1C[C@H]1C[C@H]3[C@H](N(C)C)C(O)=C(C(N)=O)C(=O)[C@@]3(O)C(O)=C1C2=O | * | * | *
17 | CCCN(CC)C(=O)c1cc(N(C)C)c2c(c1O)C(=O)C1=C(O)[C@]3(O)C(=O)C(C(N)=O)=C(O)[C@@H](N(C)C)[C@@H]3C[C@@H]1C2 | * | * | *
18 | CCCCNC(=O)c1cc(N(C)C)c2c(c1O)C(=O)C1=C(O)[C@]3(O)C(=O)C(C(N)=O)=C(O)[C@@H](N(C)C)[C@@H]3C[C@@H]1C2 | * | * | *

The next lines start with the values.

Row | Median MIC for E. coli MG 1655 (E. coli MG 1655) | Median MIC for S. pneumoniae 157E (S. pneumoniae 157E) | Median MIC for S. aureus RN450 (S. aureus RN450) | Structure (SMILES)
19 | * | ** | *** | CN(C)c1cc(-c2ncccn2)c(O)c2c1C[C@H]1C[C@H]3[C@H](N(C)C)C(O)=C(C(N)=O)C(=O)[C@@]3(O)C(O)=C1C2=O
20 | * | ** | ** | CN(C)c1cc(-c2ncco2)c(O)c2c1C[C@H]1C[C@H]3[C@H](N(C)C)C(O)=C(C(N)=O)C(=O)[C@@]3(O)C(O)=C1C2=O
21 | * | * | * | CN(C)c1cc(-c2cn[nH]c2)c(O)c2c1C[C@H]1C[C@H]3[C@H](N(C)C)C(O)=C(C(N)=O)C(=O)[C@@]3(O)C(O)=C1C2=O
22 | * | ** | ** | CN(C)c1cc(-c2cccnc2)c(O)c2c1C[C@H]1C[C@H]3[C@H](N(C)C)C(O)=C(C(N)=O)C(=O)[C@@]3(O)C(O)=C1C2=O
23 | * | *** | *** | CN(C)c1cc(-c2ccccn2)c(O)c2c1C[C@H]1C[C@H]3[C@H](N(C)C)C(O)=C(C(N)=O)C(=O)[C@@]3(O)C(O)=C1C2=O
24 | * | ** | *** | CN(C)c1cc(-c2nccs2)c(O)c2c1C[C@H]1C[C@H]3[C@H](N(C)C)C(O)=C(C(N)=O)C(=O)[C@@]3(O)C(O)=C1C2=O
25 | * | *** | *** | CN(C)c1cc(-c2ccncc2)c(O)c2c1C[C@H]1C[C@H]3[C@H](N(C)C)C(O)=C(C(N)=O)C(=O)[C@@]3(O)C(O)=C1C2=O
26 | * | *** | *** | CN(C)c1cc(-c2ccsc2)c(O)c2c1C[C@H]1C[C@H]3[C@H](N(C)C)C(O)=C(C(N)=O)C(=O)[C@@]3(O)C(O)=C1C2=O
27 | * | *** | *** | CN(C)c1cc(-c2cnoc2)c(O)c2c1C[C@H]1C[C@H]3[C@H](N(C)C)C(O)=C(C(N)=O)C(=O)[C@@]3(O)C(O)=C1C2=O
28 | * | *** | *** | CN(C)c1cc(-c2cnccn2)c(O)c2c1C[C@H]1C[C@H]3[C@H](N(C)C)C(O)=C(C(N)=O)C(=O)[C@@]3(O)C(O)=C1C2=O
